# Values quoted from earlier work, collected in patent US7659300B2, “Monocyclic anilide spirolactam CGRP receptor antagonists” (Merck Sharp & Dohme Corp., priority 2004, dated 2010).
# No end group written: not given here.
# What was measured:
# facial blood flow [1] = conditions: marmoset, electrical stimulation of the trigeminal ganglion (Doods et al. 2000)
# migraine = conditions: clinical studies, intravenously administered (Olesen et al. 2004)
# middle meningeal artery = conditions: rats, electrical stimulation of the dura mater, prior administration (Williamson et al. 1997)
# facial blood flow [2] = conditions: rat, trigeminal ganglion stimulation (Escott et al. 1995)
Compound,increase in facial blood flow (facial blood flow [1]),acute treatment of migraine (migraine),increase of the diameter of the middle meningeal artery (middle meningeal artery),increase of facial blood flow (facial blood flow [2])
NCCCC[C@H](NC(=O)[C@@H](Cc1cc(Br)c(O)c(Br)c1)NC(=O)N1CCC(N2Cc3ccccc3NC2=O)CC1)C(=O)N1CCN(c2ccncc2)CC1 [BIBN4096BS],blocked,safe and effective acute treatment for migraine,,
"CGRP(8-37): a peptide CGRP antagonist; fragment of CGRP that lacks seven N-terminal amino acid residues (VTHRLAGLLSRSGGVVKNNFVPTNVGSKAF; ends and bridges not checked; UniProt P06881 90-119, looked up, fragment)",,,blocked,inhibited
